Source: US8178523B2, “Compounds for the treatment of hepatitis C” (Bristol-Myers Squibb Company, priority 2008, dated 2012)

Assays:
HCV NS5B RdRp = target: T1, HCV NS5B RdRp (Hepatitis C virus genotype 1b, UniProt Q9WMX2); assay: HCV NS5B RdRp enzyme assay; format: biochemical; conditions: HCV NS5B genotype 1b; standard or modified RdRp assay not given; class symbols
T1 construct: The protein was expressed with an 18 amino acid C-terminal truncation to enhance the solubility; made in house; host or cells: E. coli BL21(DE3)
T1 sequence (Q9WMX2 2420-2992): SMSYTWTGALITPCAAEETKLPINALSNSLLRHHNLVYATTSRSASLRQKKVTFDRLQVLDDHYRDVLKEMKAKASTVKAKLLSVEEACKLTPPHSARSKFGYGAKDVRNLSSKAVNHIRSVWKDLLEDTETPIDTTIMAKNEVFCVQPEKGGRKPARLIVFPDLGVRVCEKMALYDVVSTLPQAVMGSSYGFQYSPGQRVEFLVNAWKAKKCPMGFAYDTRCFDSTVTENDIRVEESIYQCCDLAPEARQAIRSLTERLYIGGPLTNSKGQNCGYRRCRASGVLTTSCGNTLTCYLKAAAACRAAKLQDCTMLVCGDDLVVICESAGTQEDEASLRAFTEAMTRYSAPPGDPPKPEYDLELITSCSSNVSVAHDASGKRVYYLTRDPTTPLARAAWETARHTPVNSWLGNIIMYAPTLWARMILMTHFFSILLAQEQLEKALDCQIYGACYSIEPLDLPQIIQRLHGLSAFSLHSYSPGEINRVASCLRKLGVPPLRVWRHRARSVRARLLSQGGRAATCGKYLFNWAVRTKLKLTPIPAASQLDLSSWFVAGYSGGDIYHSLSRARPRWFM
Procedure: HCV NS5B RdRp cloning, expression, and purification. The cDNA encoding the NS5B protein of HCV, genotype 1b, was cloned into the pET21a expression vector. The protein was expressed with an 18 amino acid C-terminal truncation to enhance the solubility. The E. coli competent cell line BL21(DE3) was used for expression of the protein. Cultures were grown at 37° C. for ˜4 hours until the cultures reached an optical density of 2.0 at 600 nm. The cultures were cooled to 20° C. and induced with 1 mM […]. Fresh ampicillin was added to a final concentration of 50 μg/ml and the cells were grown overnight at 20° C.
Cell pellets (3 L) were lysed for purification to yield 15-24 mgs of purified NS5B. The lysis buffer consisted of 20 mM Tris-HCl, pH 7.4, 500 mM NaCl, 0.5% triton X-100, 1 mM DTT, 1 mM EDTA, 20% glycerol, 0.5 mg/ml lysozyme, 10 mM MgCl2, 15 ug/ml deoxyribonuclease I, and Complete TM protease inhibitor tablets (Roche). After addition of the lysis buffer, frozen cell pellets were resuspended using a tissue homogenizer. To reduce the viscosity of the sample, aliquots of the lysate were sonicated on ice using a microtip attached to a Branson sonicator. The sonicated lysate was centrifuged at 100,000×g for 1 hr at 4° C. and filtered through a 0.2 μm filter unit (Corning).
The protein was purified using two sequential chromatography steps: Heparin sepharose CL-6B and polyU sepharose 4B (Pharmacia). The chromatography buffers were identical to the lysis buffer but contained no lysozyme, deoxyribonuclease I, MgCl2 or protease inhibitor and the NaCl concentration of the buffer was adjusted according to the requirements for charging the protein onto the column. Each column was eluted with a NaCl gradient which varied in length from 5-50 column volumes depending on the column type. After the final chromatography step, the resulting purity of the enzyme is >90% based on SDS-PAGE analysis. The enzyme was aliquoted and stored at −80° C.
Standard HCV NS5B RdRp enzyme assay. HCV RdRp genotype 1b assays were run in a final volume of 60 μl in 96 well plates (Corning 3600). The assay buffer is composed of 20 mM Hepes, pH 7.5, 2.5 mM KCl, 2.5 mM MgCl2, 1 mM DTT, 1.6 U RNAse inhibitor (Promega N2515), 0.01 mg/ml BSA (Sigma B6917), and 2% glycerol. All compounds were serially diluted (3-fold) in DMSO and diluted further in water such that the final concentration of DMSO in the assay was 2%. HCV RdRp genotype 1b enzyme was used at a final concentration of 28 nM. A polyA template was used at 6 nM, and a biotinylated oligo-dT12 primer was used at 180 nM final concentration. Template was obtained commercially (Amersham 27-4110). Biotinylated primer was prepared by Sigma Genosys. 3H-UTP was used at (0.29 μM total UTP). Reactions were initiated by the addition of enzyme, incubated at 30° C. for 60 min, and stopped by adding 25 μl of 50 mM EDTA containing SPA beads (4 μg/μl, Amersham RPNQ 0007). Plates were read on a Packard Top Count NXT after >1 hr incubation at room temperature.
Modified HCV NS5B RdRp enzyme assay. A modified enzyme assay was performed essentially as described for the standard enzyme assay except for the following: The biotinylated oligo dT12 primer was precaptured on streptavidin-coated SPA beads by mixing primer and beads in assay buffer and incubating at room temperature for one hour. Unbound primer was removed after centrifugation. The primer-bound beads were resuspended in 20 mM Hepes buffer, pH 7.5 and used in the assay at final concentrations of 20 nM primer and […] beads. Order of addition in the assay: enzyme (1.75 nM) was added to diluted compound followed by the addition of a mixture of template (0.36 nM), 3H-UTP (0.6 μCi, 0.29 μM), and primer-bound beads, to initiate the reaction; concentrations given are final. Reactions were allowed to proceed for 4 hours at 30° C.
IC50 values for compounds were determined using seven different [I]. […]

HCV replicon cells = assay: HCV replicon FRET / luciferase assay; format: cell-based; conditions: Hepatitis C virus, 50% reduction in FRET or luciferase activity, class symbols
Procedure: FRET Assay Preparation. The HCV FRET screening assay was performed in 96-well cell culture plates. The FRET peptide (Anaspec, Inc.) (Taliani et al., Anal. Biochem. 1996, 240, 60-67) contains a fluorescence donor, EDANS, near one end of the peptide and an acceptor, DABCYL, near the other end. The fluorescence of the peptide is quenched by […] resonance energy transfer (RET) between the donor and the acceptor, but as the NS3 protease cleaves the peptide the products are released from RET quenching and the fluorescence of the donor becomes apparent. The assay reagent was made as follows: 5× cell Luciferase cell culture lysis reagent from Promega (#E153A) diluted to 1× with dH2O, NaCl added to 150 mM final, the FRET peptide diluted to 20 μM final from a 2 mM stock.
To prepare plates, HCV replicon cells, with or without a Renilla luciferase reporter gene, were trypsinized and plated in a 96-well plate with titrated test compounds added in columns 3 through 12; columns 1 and 2 contained a control compound (HCV control inhibitor), and the bottom row contained cells with DMSO only. The plates were then placed in a CO2 incubator at 37° C.
Assays. Subsequent to addition of the test compounds described above (FRET Assay Preparation), at various times the plate was removed and Alamar blue solution (Trek Diagnostics, #00-100) was added to measure cellular toxicity. After reading in a Cytoflour 4000 instrument (PE Biosystems), plates were rinsed with PBS and then used for FRET assay by the addition of 30 ul of the FRET peptide assay reagent described above (FRET Assay Preparation) per well. The plate was then placed into the Cytoflour 4000 instrument which had been set to 340 excite/490 emission, automatic mode for up to 20 cycles and the plate read in a kinetic mode. Typically, the signal to noise using an endpoint analysis after the reads was at least three-fold. Alternatively, after Alamar blue reading, plates were rinsed with PBS, then used for luciferase assay using the Promega Dual-Glo Luciferase Assay System or the Promega EnduRen Live Cell Substrate assay.
Compound analysis was performed by quantification of the relative HCV replicon inhibition and the relative cytotoxicity values. To calculate cytoxicity values, the average Alamar Blue fluorescence signals from the control wells were set as 100% non-toxic. The individual signals in each of the compound test wells were then divided by the average control signal and multiplied by 100% to determine […]. To calculate the HCV replicon inhibition values, an average background value was obtained from the two wells containing the highest amount of HCV control inhibitor at the end of the assay period. These numbers were similar to those obtained from naïve Huh-7 cells. The background numbers were then subtracted from the average signal obtained from the control wells and this number was used as 100% activity. The individual signals in each of the compound test wells were then divided by the averaged control values after background subtraction and multiplied by 100% to determine percent activity. EC50 values were calculated as the concentration which caused a 50% reduction in FRET or luciferase activity. The two numbers generated for the compound plate, percent cytoxicity and percent activity, were used to determine compounds of interest for further analysis.

With COc1ccc2c(c1)C1CC1(C(=O)N1CCC(c3noc4cc(F)ccc34)CC1)Cn1c-2c(C2CCCCC2)c2ccc(C(=O)N[S+]([O-])N(C)C)cc21 (centres unmarked) the IC50 (HCV NS5B RdRp) was 2 to 500 nM and the EC50 (HCV replicon cells) was 2 to 500 nM.
COc1ccc2c(c1)C1CC1(C(=O)N1CCC(c3cc(-c4ccco4)n[nH]3)CC1)Cn1c-2c(C2CCCCC2)c2ccc(C(=O)NS(=O)(=O)N(C)C)cc21 (centres unmarked) gave an IC50 (HCV NS5B RdRp) of 2 to 500 nM and an EC50 (HCV replicon cells) of 2 to 500 nM.
COc1ccc2c(c1)C1CC1(C(=O)N1CCC(c3nc4cc(C)ccc4[nH]3)CC1)Cn1c-2c(C2CCCCC2)c2ccc(C(=O)NS(=O)(=O)N(C)C)cc21 (centres unmarked) showed an IC50 (HCV NS5B RdRp) of 2 to 500 nM and an EC50 (HCV replicon cells) of 2 to 500 nM.
COc1ccc(-c2cnn(C3CCN(C(=O)C45CC4c4cc(OC)ccc4-c4c(C6CCCCC6)c6ccc(C(=O)NS(=O)(=O)N(C)C)cc6n4C5)CC3)c2)cc1 (centres unmarked) gave an IC50 (HCV NS5B RdRp) of 2 to 500 nM and an EC50 (HCV replicon cells) of 2 to 500 nM.
COc1ccc2c(c1)C1CC1(C(=O)N1CCC(n3cc(-c4ccc(Cl)cc4)cn3)CC1)Cn1c-2c(C2CCCCC2)c2ccc(C(=O)NS(=O)(=O)N(C)C)cc21 (centres unmarked) was tested, and the IC50 (HCV NS5B RdRp) was 2 to 500 nM and the EC50 (HCV replicon cells) was 2 to 500 nM.
For COc1ccc2c(c1)C1CC1(C(=O)N1CCC(n3cc(-c4ccccc4)cn3)CC1)Cn1c-2c(C2CCCCC2)c2ccc(C(=O)NS(=O)(=O)N(C)C)cc21 (centres unmarked), the IC50 (HCV NS5B RdRp) was 2 to 500 nM and the EC50 (HCV replicon cells) was 2 to 500 nM.
In the case of COc1ccc2c(c1)C1CC1(C(=O)N1CCC(n3cc(-c4ccccc4Cl)cn3)CC1)Cn1c-2c(C2CCCCC2)c2ccc(C(=O)NS(=O)(=O)N(C)C)cc21 (centres unmarked), the IC50 (HCV NS5B RdRp) is reported as 2 to 500 nM and the EC50 (HCV replicon cells) is reported as 2 to 500 nM.
CCCc1noc(C2CCN(C(=O)C34CC3c3cc(OC)ccc3-c3c(C5CCCCC5)c5ccc(C(=O)NS(=O)(=O)N(C)C)cc5n3C4)CC2)n1 (centres unmarked) gave an IC50 (HCV NS5B RdRp) of 2 to 500 nM and an EC50 (HCV replicon cells) of 2 to 500 nM.
In the case of CCOC(=O)c1coc(C2CCN(C(=O)C34CC3c3cc(OC)ccc3-c3c(C5CCCCC5)c5ccc(C(=O)NS(=O)(=O)N(C)C)cc5n3C4)CC2)n1 (centres unmarked), the IC50 (HCV NS5B RdRp) is reported as 2 to 500 nM and the EC50 (HCV replicon cells) is reported as 2 to 500 nM.
CCc1nnc(C2CCN(C(=O)C34CC3c3cc(OC)ccc3-c3c(C5CCCCC5)c5ccc(C(=O)NS(=O)(=O)C(C)C)cc5n3C4)CC2)o1 (centres unmarked) showed an IC50 (HCV NS5B RdRp) of 2 to 500 nM and an EC50 (HCV replicon cells) of 2 to 500 nM.
Work on COc1ccc2c(c1)C1CC1(C(=O)N1CCC(c3cc4ccccc4o3)CC1)Cn1c-2c(C2CCCCC2)c2ccc(C(=O)NS(=O)(=O)C(C)C)cc21 (centres unmarked) yielded an IC50 (HCV NS5B RdRp) of 2 to 500 nM and an EC50 (HCV replicon cells) of over 500 nM.
Work on COc1ccc2c(c1)C1CC1(C(=O)N1CCC(c3c[nH]c4ccccc34)CC1)Cn1c-2c(C2CCCCC2)c2ccc(C(=O)NS(=O)(=O)C(C)C)cc21 (centres unmarked) yielded an IC50 (HCV NS5B RdRp) of 2 to 500 nM and an EC50 (HCV replicon cells) of 2 to 500 nM.
Work on COc1ccc2c(c1)C1CC1(C(=O)N1CCC(c3nnc(C(C)C)o3)CC1)Cn1c-2c(C2CCCCC2)c2ccc(C(=O)NS(=O)(=O)C(C)C)cc21 (centres unmarked) yielded an IC50 (HCV NS5B RdRp) of 2 to 500 nM and an EC50 (HCV replicon cells) of 2 to 500 nM.
